Source: patent publication US12037324B2, “Biarylmethyl heterocycles” (Université de Montréal, priority 2016, dated 2024)

Tests used:
Assay type in all cases: cell-based
AGTR1 = molecular target: T1, AGTR1 (Homo sapiens, UniProt P30556); assay: DiscoveRx β-arrestin2 recruitment assay (enzyme complementation, Pathunter CHO-K1 AGTR1 β-arrestin cell line); conditions: DiscoveRx β-arrestin2 recruitment
T1 construct: host or cells: Pathunter CHO-K1 AGTR1 β-arrestin cell line (CHO-K1)
T1 sequence (P30556 1-359): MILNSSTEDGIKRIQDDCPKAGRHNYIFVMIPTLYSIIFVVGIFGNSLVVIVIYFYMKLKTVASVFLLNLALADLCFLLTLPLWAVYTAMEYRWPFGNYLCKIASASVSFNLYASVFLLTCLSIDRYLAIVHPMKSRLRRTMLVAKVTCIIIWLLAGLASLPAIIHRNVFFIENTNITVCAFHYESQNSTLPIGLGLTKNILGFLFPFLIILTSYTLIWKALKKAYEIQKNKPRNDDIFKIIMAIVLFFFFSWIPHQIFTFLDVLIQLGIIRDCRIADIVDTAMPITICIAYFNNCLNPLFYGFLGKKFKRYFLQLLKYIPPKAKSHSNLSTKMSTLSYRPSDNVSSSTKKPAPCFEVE
In short: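 CHO-K1 cells expressing AGTR1 with β-arrestin2 enzyme-complementation reporter, plated 14-16 h ahead in 1% serum medium, then exposed to compounds for 90 min at 37° C. Chemiluminescence read after 1 h detection. EC50 (agonist) or IC50 (antagonist) from 4-parameter logistic fit; activity as percentage of All maximal effect.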

hAT1R [1] = molecular target: T2, hAT1R (Homo sapiens, UniProt P30556); assay: BRET β-arrestin2 biosensor assay, higher receptor expression (hAT1R 5 ng/well), HEK293 cells; conditions: for EC50: High AT1R Expression
T2 sequence (P30556 1-359): T1 sequence (P30556 1-359)

hAT1R [2] = molecular target: T2, hAT1R; assay: BRET Gq biosensor assay, agonist response, HEK293 cells; conditions: section of the 42nd table directly before the BRET P63 section
Procedure: BRET β-arrestin2 and Gq Activation Assays
In another aspect of the invention, association of the ATIR with signaling proteins is assessed using bioluminescence resonance energy transfer assays (Stephane Angers, Ali Salahpour et al. 2002). This technology measures the association between bioluminescent and fluorescent protein tags.
Several of the plasmid constructs used in BRET experiments were previously described. Briefly, the coding sequence of β-arrestin2 was fused to Renilla luciferase II to generate β-arrestin2-Rluc (Quoyer, Janz et al. 2013). The membrane targeting motif from K-Ras, CAAX motif (GKKKKKKSKTKCVIM), was fused to Renilla GFP to create rGFP-CAAX plasmid (Namkung Y et al., Nat Commun (2016) 7, 12178). The Renilla luciferase II was inserted in the Gaq protein to generate Gaq-Rluc (Breton, Sauvageau et al. 2010). The Gγ1 protein was tagged with GFP10 to obtain GFP-Gyl, using the same strategy described previously for GFP-Gy2 (Gales, Rebois et al. 2005). The Gaq binding domain of the p63RhoGEF protein (amino acids 295-502) was fused to Renilla luciferase II to create P63-Rluc. Finally, the hAT1R plasmid construct encoding the receptor was generated by optimizing the coding sequence of human angiotensin II receptor (GeneOptimizer from ThermoFisher), and adding an artificial cleavable signal peptide from bovine prolactin ([…]) in N-terminus of the receptor to increase cell surface expression.
Gq Biosensor Assay HEK293 cells were cultured in DMEM supplemented with Penicillin-Streptomycin and 10% fetal bovine serum. Two days before the BRET experiment, HEK293 cells were transfected with hAT1R expression plasmid (200 ng/well) as well as Gaq-Rluc (100 ng/well), Gβ1 (375 ng/well) and GFP-Gγ1 (625 ng/well), using linear polyethylenimine 25 kDa (PEI) at a PEI:DNA ratio of 3:1. Transfected cells were directly seeded in 96-well plates, at a density of 35 000 cells per well, and maintained in culture for the next 48 h.
BRET experiments were carried out subsequently using the following procedures: cells were washed once with Tyrode's buffer (137 mM NaCl, 1 mM CaCl2, 0.9 mM KCl, […], 3.6 mM NaH2PO4, 5.5 mM glucose, 12 mM NaHCO3, and 25 mM HEPES, pH 7.4) and 90 μl of Tyrode's buffer was added to each well. Cells were equilibrated in their new buffer at room temperature for at least 30 minutes. Following the equilibration period, the coelenterazine substrate was first added to the cells, 10 μl per well of a 10×solution (prolume purple coelenterazine at a final concentration of 2 μM), immediately followed by compound addition using the HP D300 digital dispenser from Tecan (10 singlicate concentrations). Cells were incubated for 5 min at room temperature and BRET readings were then collected using a Synergy Neo Multi-Mode reader from BioTek with BRET2 filters 410/515, to record agonist response. […] A second reading was collected 5 min after this second addition, using the Synergy Neo Multi-Mode reader from BioTek with BRET2 filters 410/515, to record antagonist response. The BRET signal was determined by calculating the ratio of the light emitted by GFP (515 nm) over the light emitted by the Rluc (410 nm). To analyze agonist response, BRET signal values were converted into percentage of activation using the non-stimulated control as 0% and AngII maximal response as 100%. Sigmoidal concentration-response curves were generated with those normalized values using a 4-parameter logistic equation (IDBS ActivityBase software), to determine EC50 of the different compounds. In the case of antagonist response analysis, BRET signal values were converted into percentage of inhibition using the fixed dose of AngII (corresponding to the EC50) as 0% and non-stimulated control as 100%. Sigmoidal concentration-response curves were generated with those normalized values using a 4-parameter logistic equation (IDBS ActivityBase software), to determine IC50 of the different compounds.

SMILES	EC50 (AGTR1) [nM]	DiscoveRx β-arrestin2 Ymax (%) (AGTR1; maximal response)	BRET β-Arrestin2 High AT1R Expression Ymax (%) (hAT1R [1])	EC50 (hAT1R [1]) [nM]	EC50 (hAT1R [2]) [nM]	DiscoveRx β-arrestin2 Ymax (%) (AGTR1)
CCCCc1ncc(C(=O)NCCC(C)C)n1Cc1ccc(-c2cc(-c3ccccc3)ccc2-c2nn[nH]n2)cc1 [Example 366]	11.1	37.0	78.7	27.4	42.9	
CCCCC(=O)N(Cc1ccc(-c2cc(-c3cccnc3OC)ccc2-c2nn[nH]n2)cc1)C1(C(=O)O)CCCCC1 [Example 290]	88.5	30.7	31.2	67.3	503	
CCCCc1ncc(C(=O)NCc2cc(C(C)C)no2)n1Cc1ccc(-c2cc(-c3ccccc3)ccc2-c2nn[nH]n2)cc1 [Example 363]	10.7	46.2	100.4	23.8	59.6	
CCCCc1ncc(C(=O)NCCC2CC2)n1Cc1ccc(-c2cc(-c3ccccc3)ccc2-c2nn[nH]n2)cc1 [Example 357]	19.6	41.8	72.5	23.4	46.3	
CCOc1nc2cccc(C(=O)O)c2n1Cc1ccc(-c2cc(-c3ccc(C(=O)N(C)C)cc3)ccc2-c2noc(=O)[nH]2)cc1 [Example 321]	56.8	83.4	86.7	108	47.9	
CCCCc1ncc(C(=O)NC2CCC2)n1Cc1ccc(-c2cc(-c3ccccc3)ccc2-c2nn[nH]n2)cc1 [Example 380]	59.2	43.1	76.0	35	104	
CCCCc1nc(Cl)c(C(=O)O)n1Cc1ccc(-c2cc(N3CC(C)(C)c4ccccc43)ccc2-c2noc(=O)[nH]2)cc1 [Example 405, 2-butyl-4-chloro-1-((5′-(3,3-dimethylindolin-1-yl)-2′-(5-oxo-4,5-dihydro-1,2,4-oxadiazol-3-yl)-[1,1′-biphenyl]-4-yl)methyl)-1H-imidazole-5-carboxylic acid]	57.5	32.8	95.8	42	492	
CCCCc1ncc(C(=O)NCCC(C)(C)O)n1Cc1ccc(-c2cc(-c3ccccc3)ccc2-c2nn[nH]n2)cc1 [Example 350]	8.3	47.0	94.3	15.6	25.3	
CCCCc1ncc(C(=O)N2CCCCC2)n1Cc1ccc(-c2cc(-c3ccccc3)ccc2-c2nn[nH]n2)cc1 [Example 378]	107	15.7	26.3	238	688	
CCCCC(=O)N(Cc1ccc(-c2cc(-c3ccccc3)ccc2-c2nn[nH]n2)cc1)C1(C(=O)O)Cc2ccccc2C1 [Example 279]	190	33.7	82.6	210	> 100000	
CCCCc1ncc(C(=O)O)n1Cc1ccc(-c2cc(-c3ccccc3)ccc2C(=O)O)cc1 [Example 415]	111	29.3	26.8	206	487	
CCCCC(=O)N(Cc1ccc(-c2cc(-c3ccccc3)ccc2-c2nn[nH]n2)nc1)C1(C(=O)O)CCCCC1 [Example 273]	21.4	39.3	88.1	23.2	155	
CCOc1nc2cccc(C(=O)OC)c2n1Cc1ccc(-c2cc(-c3ccccc3)ccc2-c2noc(=O)[nH]2)cc1 [Example 316, methyl 2-ethoxy-1-((6′-(5-oxo-4,5-dihydro-1,2,4-oxadiazol-3-yl)-[1,1′:3′,1″-terphenyl]-4-yl)methyl)-1H-benzo[d]imidazole-7-carboxylate]	53	51.6	97.5	46.2	> 100000	
CCCCC(=O)N(Cc1ccc(-c2cc(-c3cnn(C)c3)ccc2-c2nn[nH]n2)cc1)[C@H](C(=O)O)C(C)C [Example 442]	105		17.2	303	> 100000	10.9
CCCCc1ncc(-c2nnc(C)o2)n1Cc1ccc(-c2cc(-c3ccccc3)ccc2-c2nn[nH]n2)cc1 [Example 413, 2-(1-((6′-(2H-tetrazol-5-yl)-[1,1′:3′,1″-terphenyl]-4-yl)methyl)-2-butyl-1H-imidazol-5-yl)-5-methyl-1,3,4-oxadiazole]	21.8	16.3	47.5	55.6	351	
CCCC(=O)N(Cc1ccc(-c2cc(-c3ccccc3)ccc2-c2nn[nH]n2)nc1)[C@H](C(=O)O)C(C)C [Example 432]	40.1		88.4	163	286	42.9
CCOc1nc2cccc(C(=O)O)c2n1Cc1ccc(-c2cc(-c3cnc(OC)c(C)c3)ccc2-c2nn[nH]n2)cc1 [Example 328, 2-ethoxy-1-((5′-(6-methoxy-5-methylpyridin-3-yl)-2′-(2H-tetrazol-5-yl)-[1,1′-biphenyl]-4-yl)methyl)-1H-benzo[d]imidazole-7-carboxylic acid]	802	51.8			2620	
CCCCc1nc(Cl)c(C(=O)O)n1Cc1ccc(-c2cc(-c3cc(C)ccn3)ccc2-c2nn[nH]n2)cc1 [Example 420]	6.5	73.6			79.7	
CCCCc1nc(Cl)c(C(=O)O)n1Cc1ccc(-c2cc(-n3ccc4ccccc43)ccc2-c2nn[nH]n2)cc1 [Example 417]	5.9	39.6			> 100000	
CCCc1nc(CC)c(C(=O)OCc2oc(=O)oc2C)n1Cc1ccc(-c2cc(-c3ccccc3)ccc2-c2nn[nH]n2)cc1 [Example 412, (5-methyl-2-oxo-1,3-dioxol-4-yl)methyl 1-((6′-(2H-tetrazol-5-yl)-[1,1′:3′,1′″-terphenyl]-4-yl)methyl)-4-ethyl-2-propyl-1H-imidazole-5-carboxylate]	11.7	64.1			62.7	
